Patent publication US10619210B2, “Predicting response to epigenetic drug therapy” (THE JOHNS HOPKINS UNIVERSITY, priority 2014, dated 2020)

Key:
Type in all cases: cell-based, human
[1] = tested on: HCC1569, ZR751, COLO201, HT29, A2780 and TYKNU cells; test: qRT-PCR validation of AIM genes in two cell lines from each cancer type; details: two cell lines per cancer type
Protocol: After total cellular RNA was extracted using the Trizol method (Life Technologies, Carlsbad, Calif.), RNA concentration was determined using the Nanodrop machine and software (Thermo Fisher Scientific, Rockville, Md.). 1 μg total RNA was used to generate cDNA with the QuantiTect Reverse Transcription Kit (Qiagen, Venlo, Netherlands). Quantitative reverse transcription PCR (q-RT-PCR) of CD274, DDX58, HLA-C, IFI6, IFI27, IL-15, IRF7, IRF9, MAEL, and MAGEB2 mRNA was performed using TaqMan assays (Life Technologies, Carlsbad, Calif.) and the Applied Biosystems 7500 Fast real-time PCR system and software. Human β-actin mRNA was used as the endogenous control. The ΔΔCT method was used to calculate relative expression levels. All qRT-PCR assays were carried out in triplicate and then repeated with new cDNA synthesis. Minus RT controls (reverse transcriptase negative cDNA synthesis reactions) were performed for at least one sample per plate.

breast cancer cell lines [2] = test: AZA-induced immune gene demethylation and re-expression, breast cancer cell lines
Text: (§1) The canonical effects of AZA have traditionally been described as demethylation of promoter regions and subsequent expression of the silenced gene. Many of the pathway changes in response to AZA, such as increased expression of immune genes, may be the result of downstream events elicited by a small number of hubs related to promoter DNA demethylation and associated gene upregulation. We investigated hub networks in our current pan-cancer analyses by first searching, in a genome-wide analysis using the Infinium 450K methylation platform, for genes that have AZA-induced demethylation of cancer-specific, DNA hypermethylated, CpG islands associated with proximal promoter regions. The total number of such demethylated genes in the cell lines from breast, ovarian and colorectal cancers was 162 (FIG. 8A). […]
(§2) All data were analyzed using R: A Language and Environment for Statistical Computing. […] These normalized values were then analyzed utilizing the Gene Set Enrichment Analysis by the Broad Institute and data packages (C5BP, Reactome, KEGG). […] TCGA HumanMethylation27K level 3 data was downloaded, standard deviation of Infinium β-values across all primary cancer samples were calculated, and the top one thousand most variable probes were chosen for hierarchical cluster analysis. […]

[3] = tested on: colorectal cancer cell lines; test: AZA-induced immune gene demethylation and re-expression, colorectal cancer cell lines
Text: as §1, §2

[4] = tested on: 63 cancer cell lines (26 breast, 14 colorectal, and 23 ovarian); test: GSEA gene sets common to 63 cancer cell lines (breast, colorectal, ovarian) after AZA
Protocol: (§3) In the context of the above background, we explored further our understanding of the global pathway changes after treatment with low doses of the DNMTi AZA in cell lines from multiple common human cancers. A total of 63 cancer cell lines (26 breast, 14 colorectal, and 23 ovarian) were treated with low dose, 500 nM, AZA for three days. DNA and RNA were isolated at multiple time points following initial drug application and analyzed for genome-wide changes in DNA methylation and gene expression (Agilent 44K Expression Array). […] These gene sets could be broadly divided into four categories including cell cycle control (cell cycle, mitosis, meiosis), DNA replication (DNA replication and packaging, transcription), mRNA splicing and translation, and immune response (FIG. 1C,D; Tables 2 and 3). […] See also FIG. 1A. […] See also FIG. 1B.
63 cell lines (26 breast cancer, 14 colorectal cancer, 23 ovarian cancer) were used in these experiments. Breast cell lines included BT20, BT474, CAMA1, EFM19, MDA453, MDA468, MDA361, MCF7, MDA231, T47D, HCC1500, and HCC1187 obtained from the American Type Tissue Collection; HCC1419, HCC38, EFM192A, HCC1569, HCC1937, HCC1954, MDA175, MDA415, MDA436, SUM149, SUM159, SKBR3, ZR751, and ZR7530 from Dr. Dennis Slamon. All cells were maintained under recommended conditions. Colorectal cell lines were all obtained from the American Type Tissue Collection and were maintained under recommended conditions. These included CACO-2, Colo201, Colo205, Colo320, DLD1, HCT116, HT29, Lovo, RKO, SK-CO1, SNUC-1, SW48, SW480, and SW620. Ovarian cell lines were obtained from the laboratory of Dr. Dennis Slamon and included A2780, CAOV3, DOV13, EFO27, ES2, Hey, HEYC2, Kuramochi, OAW28, OAW42, OV167, OV2008, OV90, OVCA429, OVCA432, OVMANA, OVCAR3, OVCAR5, OVKATE, PEO14, SKOV3, TOV112D, and TykNu; these were maintained under the ATCC recommended conditions.
Cell lines were treated with 500 nM of AZA or carboplatin (Sigma; St. Louis, Mo.) for 72 hours while in log-growth phase, changing the media and drug every 24 hours for AZA treatment. To select an appropriate chemotherapy control, the carboplatin dose that had the similar growth inhibitory effect to 500 nM AZA after 10 days was selected. Cells were harvested at 1, 3, 7, 10, 14, 21, or 28 days following initial application of drug. […]
as §2

lung cancer cell lines = test: GSEA of lung cancer cell lines treated with the same AZA dosing schedule; details: 14 lung cancer cell lines
breast cancer cell lines [5] = test: GSEA of Agilent 44K expression arrays after low-dose AZA, breast cancer cell lines
Protocol: as §3, with “1B. […]” for “1B.”
as §2

[6] = tested on: ovarian cancer cell lines; test: AZA-induced immune gene demethylation and re-expression, ovarian cancer cell lines
Text: as §1, §2

[7] = tested on: ovarian cancer cell lines; test: GSEA of Agilent 44K expression arrays after low-dose AZA, ovarian cancer cell lines
Protocol: as §3, with “1B. […]” for “1B.”
as §2

[8] = tested on: colorectal cancer cell lines; test: GSEA of Agilent 44K expression arrays after low-dose AZA, colorectal cancer cell lines
Protocol: as §3, with “1B. […]” for “1B.”
as §2

[9] = tested on: cell lines from breast, ovarian and colorectal cancers; test: AZA-induced promoter CpG island demethylation and re-expression (Infinium 450K), all three cancer types
Text: The canonical effects of AZA have traditionally been described as demethylation of promoter regions and subsequent expression of the silenced gene. Many of the pathway changes in response to AZA, such as increased expression of immune genes, may be the result of downstream events elicited by a small number of hubs related to promoter DNA demethylation and associated gene upregulation. We investigated hub networks in our current pan-cancer analyses by first searching, in a genome-wide analysis using the Infinium 450K methylation platform, for genes that have AZA-induced demethylation of cancer-specific, DNA hypermethylated, CpG islands associated with proximal promoter regions. The total number of such demethylated genes in the cell lines from breast, ovarian and colorectal cancers was 162 (FIG. 8A). […] The highest percentages of these demethylation and re-expression events were again seen in immune genes; 26%, of the 162 genes were categorized as immune related (FIG. 8B,C). Overall, immune gene demethylation and re-expression was again highest in ovarian cancer cell lines (53.8%) followed by colorectal (42.8%) and breast (30.7%) cancer cell lines (FIG. 8B). Of note, amongst these 162 genes, 8 (4.9%) were also in our AIM gene set (BNIP3, HERC5, ICAM1, IRF7, MX1, MST1R, PSMB8, TCRIG1) with IRF7, a member of the interferon regulatory factor family of transcription factors in particular being notable for being a canonical demethylated and reexpressed gene.
Cell lines were treated with 500 nM of AZA or carboplatin (Sigma; St. Louis, Mo.) for 72 hours while in log-growth phase, changing the media and drug every 24 hours for AZA treatment. To select an appropriate chemotherapy control, the carboplatin dose that had the similar growth inhibitory effect to 500 nM AZA after 10 days was selected. Cells were harvested at 1, 3, 7, 10, 14, 21, or 28 days following initial application of drug. DNA and RNA were obtained using standard protocols. RNA from 63 cell lines was sent for the Agilent 44K Expression Array and DNA from 53 cell lines was sent for the Illumina 450K Methylation Array.
All data were analyzed using R: A Language and Environment for Statistical Computing. Expression normalization of cell line data was performed using the package Limma as previously described. Data was normalized within each tumor type (breast, colorectal, and ovarian). These normalized values were then analyzed utilizing the Gene Set Enrichment Analysis by the Broad Institute and data packages (C5BP, Reactome, KEGG). […] TCGA HumanMethylation27K level 3 data was downloaded, standard deviation of Infinium β-values across all primary cancer samples were calculated, and the top one thousand most variable probes were chosen for hierarchical cluster analysis. […]

[10] = tested on: A2780 ovarian cancer cells; test: qRT-PCR of AIM genes in A2780 after AZA or carboplatin; details: 500 nM for 72 hours, then 7 days recovery without drug
Protocol: FIG. 9A-9D. AIM genes are induced by TSA but not by chemotherapeutic agents. […] FIG. 9B: Box plots of AIM genes after TSA treatment. FIG. 9C: Box plots of AIM genes in DKO cells compared to the parent HCT116 cell line. The orange lines indicate 2 fold change. FIG. 9D: A2780 ovarian cancer cells were treated with 500 nM AZA or carboplatin for 72 hours, then allowed to recover for 7 days without drug before RNA was isolated. qRT-PCR was performed for IFI27, IL-15, IRF7, and MAGEB2 genes. Blue bars indicate Mock treatment, purple indicate AZA, and orange indicate carboplatin. Fold change is plotted on the Y axis. Each bar represents the average and standard deviation of three biological replicates. […]
After total cellular RNA was extracted using the Trizol method (Life Technologies, Carlsbad, Calif.), RNA concentration was determined using the Nanodrop machine and software (Thermo Fisher Scientific, Rockville, Md.). 1 μg total RNA was used to generate cDNA with the QuantiTect Reverse Transcription Kit (Qiagen, Venlo, Netherlands). Quantitative reverse transcription PCR (q-RT-PCR) of CD274, DDX58, HLA-C, IFI6, IFI27, IL-15, IRF7, IRF9, MAEL, and MAGEB2 mRNA was performed using TaqMan assays (Life Technologies, Carlsbad, Calif.) and the Applied Biosystems 7500 Fast real-time PCR system and software. […]

colon cancer cell lines = test: AIM gene expression in colon cancer cell lines after TSA; details: six colon cancer cell lines, 300 nM TSA for 18 hours
Protocol: FIG. 9A-9D. AIM genes are induced by TSA but not by chemotherapeutic agents. […] FIG. 9B: Box plots of AIM genes after TSA treatment. FIG. 9C: Box plots of AIM genes in DKO cells compared to the parent HCT116 cell line. The orange lines indicate 2 fold change. FIG. 9D: A2780 ovarian cancer cells were treated with 500 nM AZA or carboplatin for 72 hours, then allowed to recover for 7 days without drug before RNA was isolated. qRT-PCR was performed for IFI27, IL-15, IRF7, and MAGEB2 genes. Blue bars indicate Mock treatment, purple indicate AZA, and orange indicate carboplatin. Fold change is plotted on the Y axis. Each bar represents the average and standard deviation of three biological replicates.
It is especially noteworthy that the DKO cell line (haplo-insufficient for DNMT1 and null for DNMT3B), which is shown as a genetic mimic of AZA treatment (FIG. 2B, FIG. 7) induces significant upregulation for most AIM genes (FIG. 9A, C). To determine whether this was specific to DNMT inhibitors, we also treated cells with an HDAC inhibitor (TSA) that has been used extensively in our laboratory. […] This activation appears to be in response to epigenetic agents and not the result of a general cell stress response that could be elicited by chemotherapeutics such as carboplatin.

[11] = 500 nM AZA for three days, NES>2.15, FDR<0.25

## Nc1ncn([C@@H]2O[C@H](CO)[C@@H](O)[C@H]2O)c(=O)n1 [AZA, 5-azacitidine]
[1]
  qRT-PCR validation of AZA-induced re-expression of selected AIM (interferon response) genes: Each chosen gene validated
  qRT-PCR validation of upregulation of selected antigen presentation pathway genes: validated
Breast cancer cell lines [2]
  immune gene demethylation and re-expression (percent of cell lines): 30.7%
[3]
  immune gene demethylation and re-expression (percent of cell lines): 42.8%
[4]; 500 nM AZA for three days
  immune gene sets showing upregulation by AZA (15/16 gene sets): 93.7%
[4]; 500 nM AZA for three days, NES<-2.15, FDR<0.25
  downregulated GSEA gene sets common between the three cancer types: 52 gene sets
[4]; [11]
  upregulated GSEA gene sets common between the three cancer types: 80 gene sets
[4]; range over breast, colorectal, ovarian
  enrichment for immunomodulatory pathways in all three cancers: 14.4-31.3%
Lung cancer cell lines
  gene sets common to breast, colon, and ovarian cell lines also upregulated in the lung cancer cell lines (76/80): 95%
  significantly upregulated pathways that were immune related: 23.3%
Breast cancer cell lines [5]; [11]
  Overall immune pathway upregulation (percent of upregulated GSEA gene sets that are immune-related): 16.9%
Breast cancer cell lines [5]; GSEA NES>2.15, FDR<0.25
  upregulation of cancer testis antigens gene set (percent of cell lines): 19.2%
[6]
  immune gene demethylation and re-expression (percent of cell lines): 53.8%
[7]; ovarian cancers, 500 nM AZA for three days, NES>2.15, FDR<0.25
  Overall immune pathway upregulation (percent of upregulated GSEA gene sets that are immune-related): 31.3%
[7]; ovarian, GSEA NES>2.15, FDR<0.25
  upregulation of cancer testis antigens gene set (percent of cell lines): 39.1%
[8]; [11]
  Overall immune pathway upregulation (percent of upregulated GSEA gene sets that are immune-related): 14.4%
[8]; GSEA NES>2.15, FDR<0.25
  upregulation of cancer testis antigens gene set (percent of cell lines): 64.3%
[9]
  share of the 162 demethylated/re-expressed genes categorized as immune related: 26%
  subset of the 162 genes showing demethylation and re-expression in all three cancer types: 4.9%
[9]; 8 (4.9%)
  number of the 162 demethylated/re-expressed genes also in AIM gene set: 8 genes
[9]; basal β ≥0.5, Δβ(AZA-Mock)≤-0.25, >2-fold expression
  total number of demethylated (and re-expressed) genes: 162 genes
[10]
  expression of AIM genes IFI27, IRF7, IL15, MAGEB2 (qRT-PCR): increased

## CC(/C=C/C(=O)NO)=C\[C@@H](C)C(=O)c1ccc(N(C)C)cc1 [TSA]
Colon cancer cell lines
  regulation of AIM genes: regulates subsets of AIM genes but not as uniformly or robustly as DKO cells or AZA treated cells

## N.N.O=C([O-])C1(C(=O)[O-])CCC1.[Pt+2] [carboplatin]
[10]
  expression of AIM genes IFI27, IRF7, IL15, MAGEB2 (qRT-PCR): does not lead to overexpression
